# Where “and” joins values, the source holds several entries; their conditions need not be identical. Equal values may be shown once.
# How the values were obtained:
# hippocampal neurons [1] = assay: Immunocytochemistry: percent correlation of spines to synaptic markers (VGLUT1, Synapsin, PSD-95); type: cell-based, rat; details: HGF 10 ng/ml, 5 days
# Method: Transfected neurons were treated, fixed and stained. Briefly, cells were permeablized with 0.1% Triton X-100 detergent (Bio-Rad; Hercules, Calif.) for 10 minutes. An 8% bovine serum albumin (Intergen Company; Burlington, Mass.) in PBS was used to prevent non-specific binding for one hour at R.T.; Primary antibody incubations were at a 1:2500 dilution (see below) in 1% BSA in PBS at 4° C. overnight. Secondary antibody, 1:3000 Alexafluor 488 goat-anti-mouse (Invitrogen: Carlsbad, Calif.) was applied for two hours at room temperature. Coverslips were mounted with ProLong Gold anti-fade reagent (Invitrogen; Carlsbad, Calif.) and all washes were done with PBS. Imaging and analysis were performed as described above. […] In each instance the total number of spines was counted for the treatment groups, control, Nle1-AngIV and Dihexa, to ensure an active phenotype. The total number of actin enriched spines adjacent to VGLUT1 or Synapsin were counted and converted to a percentage as the percent correlation of treatment-induced spines to presynaptic markers is a strong indicator of ability to transmit excitatory signals.
# Transfected neurons were treated, fixed and stained as previously described in Chapter two. […] In each instance the total number of spines was counted for the treatment groups, control, Nle1-AngIV and Dihexa, to ensure an active phenotype. […]
# hippocampal neurons [2] = assay: Whole-cell recordings of AMPA-mediated mEPSCs; type: cell-based, rat; details: HGF 10 ng/ml, 5 days (Example 2)
# CA1 hippocampal neurons = assay: Spinogenesis in organotypic hippocampal slice cultures; type: cell-based, rat; details: HGF 10 ng/ml, 48 hours, organotypic slices
# Method: (§1) Hippocampi from P4 Sprague Dawley rats were cultured as previously described (Wayman, Impey et al. 2006). Briefly, 400 μm slices were cultured on (Milipore, Billerica, Mass.) for 3 days after which they were biolistically transfected with tomato fluorescent protein (TFP) using a Helios Gen Gun (BioRad, Hercules, Calif.), according to the manufacturer's protocol, to visualize dendritic arbors. Following a 24 hour recovery period slices were stimulated with vehicle (H2O), 1 pM Nle1-AngIV or Dihexa for 2 days. Slices were fixed and mounted. Hippocampal CA1 neuronal processes were imaged and measured as described above.
# as §1, with “Gene” for “Gen”, “with” for “with vehicle (H2O),”
# c-Met receptor = assay: c-Met phosphorylation in acute adult rat hippocampal slices; type: cell-based; details: 30 minutes
# Description: Adult Sprague-Dawley rats (250 g+) obtained from Harlan Laboratories (Ca, USA) were anesthetized with isofluorane (Vet One™, MWI, Meridian, Id., USA) and decapitated. The brain was rapidly removed and placed into ice-chilled artificial cerebrospinal fluid (aCSF) for approximately 30 s. Both hemispheres were separated by a mid-saggital cut and both hippocampi removed. Slices were sectioned cross- and length-wise (400 μm) to ensure penetrability of the drug, using a McIlwain tissue chopper (Brinkmann, Gomshall, UK) and transferred to a gassed (95% O2/5% CO2) incubation chamber containing aCSF for 90 minutes at room temperature. […]
# Protein concentration of the samples was quantified using the BCA method (Pierce, Rockford, Ill.) following the manufacturers protocol. […]
substance,measurement,setting,value
HGF: carrier free adult recombinant Hepatocyte Growth Factor (R and D Systems),percent correlation of spines to Synapsin,hippocampal neurons [1],98%
same,mean frequency of mEPSCs,hippocampal neurons [2],7.09±0.53 and 9.66±0.20
same,"number of spines per 50 μm dendrite length, CA1 neurons",CA1 hippocampal neurons,18.5
same,c-Met phosphorylation vs control (aCSF) slices,c-Met receptor; HGF 50 ng/ml (non-saturating),not statistically different from control treated slices
same,c-Met phosphorylation vs control (aCSF) slices,c-Met receptor; HGF 100 ng/ml (saturating),increased c-Met phosphorylation

# Source: patent US8598118B2, “Hepatocyte growth factor mimics as therapeutic agents” (Washington State University, priority 2011, dated 2013)
